# Results published in ChEMBL document CHEMBL5329155, “Synthesis and pharmacological evaluation of 1,3-diaryl substituted pyrazole based (thio)urea derivatives as potent antimicrobial agents against multi-drug resistant Staphylococcus aureus and Mycobacterium tuberculosis” (RSC Med Chem, 2023).
# Calls of active or inactive are those of the source. The rule behind the calls is not given here.
# Key:
# [1] = tested on: Mycobacterium tuberculosis; assay: Antimycobacterial activity against Mycobacterium tuberculosis H37Rv assessed as reduction in bacterial growth; assay type: functional
# [2] = tested on: Staphylococcus aureus; assay: Antibacterial activity against methicillin-resistant Staphylococcus aureus assessed as reduction in bacterial growth; assay type: functional
# [3] = target: DNA gyrase (Escherichia coli, UniProt P0AES4+P0AES6); assay: Inhibition of Escherichia coli DNA gyrase; assay type: protein-complex assay
# [4] = tested on: Staphylococcus aureus; assay: Antibacterial activity against Staphylococcus aureus assessed as reduction in bacterial growth; assay type: functional
# [5] = tested on: Staphylococcus aureus; assay: Antibacterial activity against methicillin/ceftriaxone/meropenem/gentamycin/linezolid resistant Staphylococcus aureus NRS 100 assessed as reduction in bacterial growth incubated for 18 to 24 hrs by broth dilution method; assay type: functional; details: time 18-24 hrs
# [6] = tested on: Staphylococcus aureus; assay: Antibacterial activity against methicillin/ceftriaxone/meropenem resistant Staphylococcus aureus NRS 192 assessed as reduction in bacterial growth incubated for 18 to 24 hrs by broth dilution method; assay type: functional; details: time 18-24 hrs
# [7] = tested on: Staphylococcus aureus; assay: Antibacterial activity against methicillin/ceftriaxone resistant Staphylococcus aureus NRS 194 assessed as reduction in bacterial growth incubated for 18 to 24 hrs by broth dilution method; assay type: functional; details: time 18-24 hrs
# [8] = tested on: Staphylococcus aureus; assay: Antibacterial activity against methicillin/ceftriaxone/meropenem resistant Staphylococcus aureus NRS 186 assessed as reduction in bacterial growth incubated for 18 to 24 hrs by broth dilution method; assay type: functional; details: time 18-24 hrs
# [9] = tested on: Staphylococcus aureus; assay: Antibacterial activity against methicillin/ceftriaxone/meropenem/vancomycin/teicoplanin resistant Staphylococcus aureus VRS 12 assessed as reduction in bacterial growth incubated for 18 to 24 hrs by broth dilution method; assay type: functional; details: time 18-24 hrs
# [10] = tested on: Staphylococcus aureus; assay: Antibacterial activity against methicillin/ceftriaxone/meropenem/gentamycin/linezolid resistant Staphylococcus aureus NRS 119 assessed as reduction in bacterial growth incubated for 18 to 24 hrs by broth dilution method; assay type: functional; details: time 18-24 hrs
# [11] = tested on: Staphylococcus aureus; assay: Antibacterial activity against methicillin/ceftriaxone/meropenem resistant Staphylococcus aureus NRS 198 assessed as reduction in bacterial growth incubated for 18 to 24 hrs by broth dilution method; assay type: functional; details: time 18-24 hrs
# [12] = tested on: Staphylococcus aureus; assay: Antibacterial activity against methicillin/ceftriaxone/meropenem/vancomycin/teicoplanin resistant Staphylococcus aureus VRS 4 assessed as reduction in bacterial growth incubated for 18 to 24 hrs by broth dilution method; assay type: functional; details: time 18-24 hrs
# [13] = tested on: Staphylococcus aureus; assay: Antibacterial activity against methicillin-susceptible Staphylococcus aureus assessed as reduction in bacterial growth incubated for 18 to 24 hrs by broth dilution method; assay type: functional; details: time 18-24 hrs
# [14] = tested on: Staphylococcus aureus; assay: Antibacterial activity against methicillin/ceftriaxone/meropenem/gentamycin/vancomycin/teicoplanin resistant Staphylococcus aureus VRS 1 assessed as reduction in bacterial growth incubated for 18 to 24 hrs by broth dilution method; assay type: functional; details: time 18-24 hrs
# [15] = tested on: Staphylococcus aureus; assay: Antibacterial activity against methicillin/ceftriaxone/meropenem resistant Staphylococcus aureus NRS 193 assessed as reduction in bacterial growth incubated for 18 to 24 hrs by broth dilution method; assay type: functional; details: time 18-24 hrs
# [16] = tested on: Staphylococcus aureus; assay: Antibacterial activity against methicillin/ceftriaxone/meropenem resistant Staphylococcus aureus NRS 129 assessed as reduction in bacterial growth incubated for 18 to 24 hrs by broth dilution method; assay type: functional; details: time 18-24 hrs
# [17] = tested on: Staphylococcus aureus; assay: Antibacterial activity against methicillin/ceftriaxone/meropenem resistant Staphylococcus aureus NRS 191 assessed as reduction in bacterial growth incubated for 18 to 24 hrs by broth dilution method; assay type: functional; details: time 18-24 hrs
# [18] = tested on: Mycobacterium tuberculosis; assay: Antimycobacterial activity against rifampicin-resisitant Mycobacterium tuberculosis ATCC 35838 assessed as inhibition of bacterial growth incubated for 18 to 24 hrs by broth dilution method; assay type: functional; details: time 18-24 hrs
# [19] = Aqueous solubility of compound in phosphate buffer at pH 7.4 incubated for 16 hrs by HPLC analysis; assay type: physicochemical
# [20] = Metabolic stability in human liver microsome assessed as elimination rate constant at 1 uM preincubated for 5 mins followed by NADPH addition and measured after 60 mins by LC-MS/MS analysis; assay type: ADME; details: liver microsomes, time 65 min
# [21] = tested on: Mycobacterium tuberculosis; assay: Antimycobacterial activity against streptomycin-resisitant Mycobacterium tuberculosis ATCC 35820 assessed as inhibition of bacterial growth incubated for 18 to 24 hrs by broth dilution method; assay type: functional; details: time 18-24 hrs
# [22] = Selectivity index, ratio of CC50 for cytotoxicity against African green monkey Vero cells assessed as reduction in cell viability to MIC for antibacterial activity against Mycobacterium tuberculosis H37Rv ATCC 27294 assessed as inhibition of bacterial growth; assay type: toxicity, cell-based; details: read-out: Selectivity Index
# [23] = tested on: Mycobacterium tuberculosis; assay: Antimycobacterial activity against Mycobacterium tuberculosis H37Rv ATCC 27294 assessed as inhibition of bacterial growth incubated for 18 to 24 hrs by broth dilution method; assay type: functional
# [24] = tested on: Mycobacterium tuberculosis; assay: Antimycobacterial activity against ethambutol-resisitant Mycobacterium tuberculosis ATCC 35837 assessed as inhibition of bacterial growth incubated for 18 to 24 hrs by broth dilution method; assay type: functional; details: time 18-24 hrs
# [25] = tested on: Mycobacterium tuberculosis; assay: Antimycobacterial activity against isoniazid-resisitant Mycobacterium tuberculosis ATCC 35822 assessed as inhibition of bacterial growth incubated for 18 to 24 hrs by broth dilution method; assay type: functional; details: time 18-24 hrs
# [26] = Cytotoxicity against African green monkey Vero cells assessed as reduction in cell viability incubated for 72 hrs by MTT assay; assay type: toxicity, cell-based; details: chlorocebus sabaeus
# [27] = Metabolic stability in human liver microsome assessed as half life at 1 uM preincubated for 5 mins followed by NADPH addition and measured after 60 mins by LC-MS/MS analysis; assay type: ADME; details: liver microsomes, time 65 min
# [28] = Metabolic stability in human liver microsome assessed as intrinsic clearance at 1 uM preincubated for 5 mins followed by NADPH addition and measured after 60 mins by LC-MS/MS analysis; assay type: ADME; details: liver microsomes, time 65 min, read-out: CLH
# [29] = tested on: Staphylococcus aureus; assay: Antibacterial activity against Staphylococcus aureus ATCC 29213 assessed as inhibition of bacterial growth measured for 18 to 24 hrs by broth dilution method; assay type: functional; details: time 18-24 hrs
# [30] = tested on: Mycobacteroides chelonae; assay: Antibacterial activity against Mycobacteroides chelonae assessed as reduction in bacterial growth incubated for 18 to 24 hrs by broth dilution method; assay type: functional; details: time 18-24 hrs
# [31] = tested on: Mycolicibacterium fortuitum; assay: Antimycobacterial activity against Mycobacterium fortuitum assessed as reduction in bacterial growth incubated for 18 to 24 hrs by broth dilution method; assay type: functional; details: time 18-24 hrs
# [32] = tested on: Mycobacterium tuberculosis; assay: Antimycobacterial activity against Mycobacterium tuberculosis assessed as reduction in bacterial growth; assay type: functional
# [33] = target: DNA gyrase (Escherichia coli) (UniProt P0AES6+P0AES4); assay: Inhibition of Escherichia coli DNA gyrase supercoiling activity assessed as reduction in linear DNA formation at 8 times MIC incubated for 90 mins; assay type: protein-complex assay
# [34] = tested on: Staphylococcus aureus; assay: Bacteriostatic activity against Staphylococcus aureus ATCC 29213 at 4 to 8 times MIC incubated for 2 to 24 hrs by time kill assay; assay type: functional, organism-based; details: time 2-24 hrs
# [35] = Selectivity index, ratio of CC50 for cytotoxicity against African green monkey Vero cells assessed as reduction in cell viability to MIC for antibacterial activity against Staphylococcus aureus ATCC 29213 assessed as inhibition of bacterial growth; assay type: toxicity, cell-based; details: read-out: Selectivity Index
smiles,measurement,setting,value
COC(=O)c1cc(-c2cccc(NC(=O)Nc3ccc(Cl)c(Cl)c3)c2)on1,MIC,[1],0.25 µg/mL
S=C(Nc1ccc(Cl)cc1)n1ccc(OCc2ccccc2)n1,MIC,[2],0.15 µM
CCOC(=O)c1c(N)csc1-c1cn(-c2ccccc2)nc1-c1ccc(C)cc1,IC50,[3],0.0123 mM
same,MIC,[4],0.22 µg/mL
C[C@@H](O)[C@H]1C(=O)N2C(C(=O)O)=C(S[C@@H]3CN[C@H](C(=O)N(C)C)C3)[C@H](C)[C@H]12 [MEROPENEM],MIC,[5],64 µg/mL
same,MIC,[6],16 µg/mL
same,MIC,[7],2 µg/mL
same,MIC,[8],8 µg/mL
same,MIC,[9],2 µg/mL
same,MIC,[10],64 µg/mL
same,MIC,[11],64 µg/mL
same,MIC,[12],64 µg/mL
same,MIC,[13],0.125 µg/mL
same,MIC,[14],64 µg/mL
same,MIC,[15],64 µg/mL
same,MIC,[16],8 µg/mL
same,MIC,[17],64 µg/mL
COc1ccc(Nc2n[nH]c(/N=C/c3ccc(N4CCCCC4)cc3)c2C(N)=O)cc1,IC50,[3],7.69 mM
COc1ccc(-c2ccn(-c3ccc(NC(=O)Nc4ccc(F)cc4F)cc3)n2)cc1OC,MIC,[18],4 µg/mL
same,solubility at 16 h,[19],6 µg/mL
same,"k el at 1 h, 1 µM",[20],8.33e-05 s⁻¹
same,MIC,[21],> 64 µg/mL
same,selectivity ratio,[22],> 200
same,MIC,[23],1 µg/mL
same,MIC,[24],64 µg/mL
same,MIC,[25],> 64 µg/mL
same,CC50 at 72 h,[26],> 200 µg/mL
same,half-life at 1 µM,[27],2.14 h
same,microsomal CLint at 1 µM,[28],10.4 µL/min/mg
same,MIC,[29],> 64 µg/mL
COc1cc(-c2ccn(-c3ccc(NC(=O)NCc4ccccc4)cc3)n2)cc(OC)c1OC,selectivity ratio,[22],< 10
same,MIC,[23],0.5 µg/mL
same,CC50 at 72 h,[26],< 5 µg/mL
same,MIC,[30],1 µg/mL
same,MIC,[31],0.5 µg/mL
same,MIC,[29],> 64 µg/mL
O=C(Nc1ccc(-n2ccc(-c3cc4ccccc4o3)n2)cc1)c1cc([N+](=O)[O-])cc([N+](=O)[O-])c1,MIC,[1],0.03 µg/mL
C[C@H]1COc2c(N3CCN(C)CC3)c(F)cc3c(=O)c(C(=O)O)cn1c23 [LEVOFLOXACIN ANHYDROUS],MIC,[5],0.25 µg/mL
same,MIC,[6],8 µg/mL
same,MIC,[7],0.25 µg/mL
same,MIC,[8],4 µg/mL
same,MIC,[9],32 µg/mL
same,MIC,[23],0.25 µg/mL
same,MIC,[10],16 µg/mL
same,MIC,[11],32 µg/mL
same,MIC,[12],32 µg/mL
same,MIC,[13],0.25 µg/mL
same,MIC,[14],32 µg/mL
same,MIC,[15],32 µg/mL
same,MIC,[16],0.25 µg/mL
same,MIC,[17],16 µg/mL
same,MIC,[29],0.25 µg/mL
COc1ccc(-c2ccn(-c3ccc(NC(=O)NCc4ccccc4)cc3)n2)cc1OC,selectivity ratio,[22],20
same,MIC,[23],1 µg/mL
same,CC50 at 72 h,[26],20 µg/mL
same,MIC,[29],> 64 µg/mL
COc1ccc(-c2nn(-c3ccc(Cl)cc3)cc2Cn2cncn2)cc1,MIC,[1],4.4 µg/mL
Cc1c(C(=O)NN2CCCCC2)nn(-c2ccc(Cl)cc2Cl)c1-c1ccc(Cl)cc1 [RIMONABANT],MIC,[32],25 µg/mL
COc1ccc(-c2ccn(-c3ccc(NC(=O)Nc4ccc(Cl)c(Cl)c4)cc3)n2)cc1OC,MIC,[5],0.25 µg/mL
same,MIC,[6],0.25 µg/mL
same,solubility at 16 h,[19],5 µg/mL
same,MIC,[7],0.25 µg/mL
same,MIC,[8],0.25 µg/mL
same,"k el at 1 h, 1 µM",[20],0.0001 s⁻¹
same,MIC,[9],0.25 µg/mL
same,MIC,[23],32 µg/mL
same,CC50 at 72 h,[26],10 µg/mL
same,MIC,[10],0.25 µg/mL
same,MIC,[11],0.25 µg/mL
same,MIC,[12],0.25 µg/mL
same,inhibition,[33],Active
same,Activity,[34],Active
same,MIC,[13],0.25 µg/mL
same,MIC,[14],0.25 µg/mL
same,half-life at 1 µM,[27],1.8 h
same,microsomal CLint at 1 µM,[28],12.4 µL/min/mg
same,selectivity ratio,[35],40
same,MIC,[15],0.25 µg/mL
same,MIC,[16],0.25 µg/mL
same,MIC,[17],0.25 µg/mL
same,MIC,[29],0.25 µg/mL
